# ChEMBL document CHEMBL1201862, “PubChem BioAssay data set” (2004)
#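 Method: 48-hour compound exposure of cells in 96-well plates, five concentrations, linear interpolation of endpoints. GI50: concentration for 50% inhibition of growth.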 The source made the active and inactive calls. No stated cut-off is given here; in the data, active = GI50 up to about 1.1 µM and inactive = higher.
# Tests used:
# Test in all cases: NCI tumour cell line growth inhibition, 48 h
# [1] = test system: 786-0
# [2] = test system: A498
# [3] = test system: A549
# [4] = test system: ACHN
# [5] = test system: BT-549
# [6] = test system: CAKI-1
# [7] = test system: CCRF-CEM
# [8] = test system: COLO 205
# [9] = test system: DU-145
# [10] = test system: EKVX
# [11] = test system: HCC 2998
# [12] = test system: HCT-116
# [13] = test system: HCT-15
# [14] = test system: HL-60
# [15] = test system: HOP-62
# [16] = test system: HOP-92
# [17] = test system: HT-29
# [18] = test system: Hs-578T
# [19] = test system: IGROV-1
# [20] = test system: K562
# [21] = test system: KM12
# [22] = test system: LOX IMVI
# [23] = test system: M14
# [24] = test system: MCF7
# [25] = test system: MDA-MB-231
# [26] = test system: MDA-MB-435
# [27] = test system: MDA-N
# [28] = test system: MOLT-4
# [29] = test system: Malme-3M
# [30] = test system: NCI-H226
# [31] = test system: NCI-H23
# [32] = test system: NCI-H460
# [33] = test system: NCI-H522
# [34] = test system: NCI/ADR-RES
# [35] = test system: OVCAR-3
# [36] = test system: OVCAR-4
# [37] = test system: OVCAR-5
# [38] = test system: OVCAR-8
# [39] = test system: PC-3
# [40] = test system: RPMI-8226
# [41] = test system: RXF 393
# [42] = test system: SF-268
# [43] = test system: SF-295
# [44] = test system: SF-539
# [45] = test system: SK-MEL-28
# [46] = test system: SK-MEL-2
# [47] = test system: SK-MEL-5
# [48] = test system: SK-OV-3
# [49] = test system: SN12C
# [50] = test system: SNB-19
# [51] = test system: SNB-75
# [52] = test system: SR
# [53] = test system: SW-620
# [54] = test system: T47D
# [55] = test system: TK-10
# [56] = test system: U-251
# [57] = test system: UACC-257
# [58] = test system: UACC-62
# [59] = test system: UO-31
smiles,measurement,setting,value
O=C1OC(CN2CCN(c3ccccc3)CC2)CN1C(=S)Nc1ccccc1 (centres undefined),GI50,[1],> 100 µM (inactive)
same,GI50,[2],> 100 µM (inactive)
same,GI50,[3],> 100 µM (inactive)
same,GI50,[4],> 100 µM (inactive)
same,GI50,[5],> 100 µM (inactive)
same,GI50,[6],> 100 µM (inactive)
same,GI50,[7],> 100 µM (inactive)
same,GI50,[8],> 100 µM (inactive)
same,GI50,[9],> 100 µM (inactive)
same,GI50,[10],> 100 µM (inactive)
same,GI50,[11],> 100 µM (inactive)
same,GI50,[12],> 100 µM (inactive)
same,GI50,[13],> 100 µM
same,GI50,[14],> 100 µM (inactive)
same,GI50,[15],> 100 µM (inactive)
same,GI50,[16],> 100 µM (inactive)
same,GI50,[17],35.1 µM (inactive)
same,GI50,[18],> 100 µM (inactive)
same,GI50,[19],> 100 µM (inactive)
same,GI50,[20],61.4 µM (inactive)
same,GI50,[21],88.3 µM (inactive)
same,GI50,[22],> 100 µM (inactive)
same,GI50,[23],> 100 µM (inactive)
same,GI50,[24],> 100 µM (inactive)
same,GI50,[25],> 100 µM (inactive)
same,GI50,[26],> 100 µM (inactive)
same,GI50,[27],> 100 µM (inactive)
same,GI50,[28],> 100 µM (inactive)
same,GI50,[29],> 100 µM (inactive)
same,GI50,[30],> 100 µM (inactive)
same,GI50,[31],> 100 µM (inactive)
same,GI50,[32],23.8 µM (inactive)
same,GI50,[33],> 100 µM (inactive)
same,GI50,[34],> 100 µM (inactive)
same,GI50,[35],> 100 µM (inactive)
same,GI50,[36],> 100 µM (inactive)
same,GI50,[37],> 100 µM (inactive)
same,GI50,[38],> 100 µM (inactive)
same,GI50,[39],84.7 µM (inactive)
same,GI50,[40],92.5 µM (inactive)
same,GI50,[41],> 100 µM (inactive)
same,GI50,[42],> 100 µM (inactive)
same,GI50,[43],> 100 µM (inactive)
same,GI50,[44],> 100 µM (inactive)
same,GI50,[45],> 100 µM (inactive)
same,GI50,[46],31.8 µM (inactive)
same,GI50,[47],> 100 µM (inactive)
same,GI50,[48],> 100 µM (inactive)
same,GI50,[49],> 100 µM (inactive)
same,GI50,[50],> 100 µM (inactive)
same,GI50,[51],65.6 µM (inactive)
same,GI50,[52],> 100 µM (inactive)
same,GI50,[53],> 100 µM (inactive)
same,GI50,[54],> 100 µM (inactive)
same,GI50,[55],> 100 µM (inactive)
same,GI50,[56],> 100 µM (inactive)
same,GI50,[57],> 100 µM (inactive)
same,GI50,[58],> 100 µM (inactive)
same,GI50,[59],> 100 µM (inactive)
